US5354549A, “Iodinated esters” (Nycomed Imaging AS, priority 1987, dated 1994)
Where two headings read alike, the source gives them in different places. Each block holds one compound with its values, some of them ahead of it.

Key:
[1] = In vitro biodegradation in Seronorm (release of Isopaque analysed by HPLC); format: in vitro ADME; conditions: pH 7.4, 37° C.
Protocol: (§1) The powdered product of Example 1 is suspended in Seronorm (5 mg/ml) (Seronorm is a trade mark of Nycomed AS) at pH 7.4 and agitated at 37° C. As a control the experiment is also performed in phosphate buffered saline (PBS) at pH 7.4. At different time points samples are taken from the supernatant after centrifugation of the vial (4,000 rpm, 10 minutes). The release of Isopaque (5-(N-acetylamino)-3-(N-acetyl-N-methylamino)-2,4,6-triiodobenzenecarboxylic acid) is analysed by HPLC. More than 50% of the substance is hydrolysed during 6 hours and after 24 hours 90% is hydrolysed.
(§2) The powdered product of Example 3 is suspended in Seronorm (0.5 mg/ml) at pH 7.4 and agitated at 37° C. As a control the experiment is also performed in phosphate buffered saline (PBS) at pit 7.4. At different time points samples are taken from the supernatant after centrifugation of the vial (4,000 rpm, 10 minutes). The release of Isopaque (5-(N-acetylamino)-3-(N-acetyl-N-methylamino)-2,4,6-triiodobenzenecarboxylic acid) is analysed by HPLC. 4.1% of the substance is hydrolysed during 24 hours. In PBS 0.12% is hydrolysed during 72 hours.
as §2, with “Example 10” for “Example 3”, “at pH” for “at pit”, “HPLC. […]” for “HPLC. 4.1% of the substance is hydrolysed during 24 hours.”, “PBS 58%” for “PBS 0.12%”
as §2, with “Example 4” for “Example 3”, “Seronorm at” for “Seronorm”, “mg/ml)” for “mg/ml) at”, “at pH” for “at pit”, “HPLC. […] In PBS 34% was” for “HPLC. 4.1% of the substance is”, “hours.” for “hours. In PBS 0.12% is hydrolysed during 72 hours.”

[2] = In vitro biodegradation, control in phosphate buffered saline (PBS); format: in vitro ADME; conditions: for degraded at 72 h: pH 7.4, 72 hours
Protocol: as §1, §2
as §2, with “Example 10” for “Example 3”, “at pH” for “at pit”, “HPLC. […]” for “HPLC. 4.1% of the substance is hydrolysed during 24 hours.”, “PBS 58%” for “PBS 0.12%”
as §2, with “Example 4” for “Example 3”, “Seronorm at” for “Seronorm”, “mg/ml)” for “mg/ml) at”, “at pH” for “at pit”, “HPLC. […] In PBS 34% was” for “HPLC. 4.1% of the substance is”, “hours.” for “hours. In PBS 0.12% is hydrolysed during 72 hours.”

[3] = read-out: substance hydrolysed in PBS

- hydrolysis of substrate ([1]; 0.5 mg/ml, after 2 hours): completely hydrolysed
- degraded at 72 h [2, 3]: 58%
SMILES: CC(=O)Nc1c(I)c(C(=O)OCOC(C)=O)c(I)c(N(C)C(C)=O)c1I [Example 10, Acetyloxvmethyl 5-(N-acetylamino)-3-(N-acetyl-N-methylamino)-2,4,6-triiodobenzenecarboxylate]

- metabolised at 2 h ([1]; 0.5 mg/ml, 2 hour incubation, read-out: substance hydrolysed): 29%
- hydrolysis ([1]; 0.5 mg/ml, after 24 hours): hydrolysis is complete
- degraded at 24 h ([2]; pH 7.4, 24 hours, read-out: substance hydrolysed in PBS): 34%
SMILES: CC(=O)Nc1c(I)c(C(=O)OC(C)OC(C)=O)c(I)c(N(C)C(C)=O)c1I (stereo not shown) [Example 4, 1-(Acetyloxy)ethyl 5-(N-acetylamino)-3-(N-acetyl-N-methylamino)-2,4,6-triiodobenzenecarboxylate]

- metabolised at 6 h ([1]; 5 mg/ml, 6 hours, read-out: substance hydrolysed): > 50%
- metabolised at 24 h ([1]; 5 mg/ml, read-out: substance hydrolysed): 90%
- hydrolysis in PBS ([2]; pH 7.4, control): no hydrolysis could be detected
SMILES: CC(=O)Nc1c(I)c(C(=O)OCOC(=O)C(C)(C)C)c(I)c(N(C)C(C)=O)c1I [Example 1, Pivaloyloxymethyl 5-(N-acetylamino)-3-(N-acetyl-N-methylamino)-2,4,6-triiodobenzenecarboxylate]

- metabolised at 24 h ([1]; 0.5 mg/ml, read-out: substance hydrolysed): 4.1%
- degraded at 72 h [2, 3]: 0.12%
SMILES: CC(=O)Nc1c(I)c(C(=O)OC(C)OC(=O)C(C)(C)C)c(I)c(N(C)C(C)=O)c1I (stereo not shown) [Example 3, 1-(Pivaloylyloxy)ethyl 5-(N-acetylamino)-3-(N-acetyl-N-methyl-amino)-2,4,6-triiodobenzenecarboxylate]
